One molecule from paper PMC3985777 (Biochemistry, 2014) can be followed below.

SMILES strings stand for the structures.

The target of experiment [1] is HasAp (Pseudomonas aeruginosa, UniProt G3XD33, H83A). The experiment can be described thus: biochemical.
Experiment [2] has as its target HasAp (Pseudomonas aeruginosa, UniProt G3XD33, Y75A). The experiment can be described thus: biochemical.

For `C=CC1=C(C)C2=Cc3c(C=C)c(C)c4[n]3[Fe]([Cl])[n]3c(c(C)c(CCC(=O)O)c3=CC3=NC(=C4)C(C)=C3CCC(=O)O)=CC1=N2` [hemin], the Kd (usually a measure of binding affinity in units of concentration) was found to be 30 µM on HasAp [1] and 129 µM on HasAp [2].
